{"source": "patent US20210032344A1", "about": "“METHODS OF TREATING TUMOR” (Bristol-Myers Squibb Company, priority 2018, published 2021)", "key": {"[1]": {"system": "stage IV or recurrent NSCLC", "assay": "Phase 3 trial, part 1: first-line nivolumab-based regimens vs chemotherapy; efficacy (PFS, ORR, duration of response)", "format": "in vivo, human", "description": "This trial is an open-label, multi-part phase 3 study of first-line nivolumab and nivolumab-based combinations in biomarker-selected NSCLC populations. […] The study continues for the co-primary endpoint of overall survival in PD-L1-selected patients.\nPatients had chemotherapy-naive, stage IV or recurrent NSCLC.\nAdult patients with PD-L1-histologically confirmed squamous or nonsquamous stage IV/recurrent NSCLC and Eastern Cooperative Oncology Group (ECOG) performance status (Oken M. M., et al. Am J Clin Oncol 5:649-55 (1982)) of 0 or 1 who had received no prior systemic anticancer therapy as primary therapy for advanced or metastatic disease were eligible for the study. All patients underwent imaging to screen for brain metastases. Patients with known EGFR mutations or ALK translocations sensitive to targeted therapy, an autoimmune disease, or untreated central nervous system metastases were excluded.\nAll treatments continued until disease progression, unacceptable toxicity, or completion per protocol (up to 2 years for immunotherapy). Crossover between treatment arms within the study was not permitted.\nPart 1 of this study had two co-primary endpoints."}, "[2]": {"system": "patients with stage IV or recurrent NSCLC", "settings": "in vivo", "description": "Overall response rates (ORR), duration of response, and safety were exploratory endpoints. Adverse events were graded according to the National Cancer Institute Common Terminology Criteria for Adverse Events, version 4.0."}, "[3]": {"settings": "monotherapy, every two weeks; MTD not reached; cited from earlier work"}}}
{"substance": "nivolumab", "values": [{"measurement": "median PFS", "setting": "[1]; TMB ≥10 mutations/Mb and ≥1% PD-L1 expression", "value": 4.2, "unit": "months"}, {"measurement": "median PFS", "setting": "[1]; TMB ≥13 mutations/Mb and ≥1% PD-L1 expression", "value": 4.2, "unit": "months"}, {"measurement": "PFS hazard ratio (HR), nivolumab vs. chemotherapy", "setting": "[1]; in vivo", "value": 0.95}, {"measurement": "safety / tolerability (in words)", "setting": "[2]", "value": "well tolerated"}, {"measurement": "maximum tolerated dose (MTD)", "setting": "[3]", "value": "> 10", "unit": "mg/kg"}]}
